Reference: patent US6677306B1, “Chondrogenic and osteogenic inducing molecule” (Northwestern University, priority 1998, dated 2004)
Entries after “also recorded” stand apart in the source; their conditions may differ.

What was measured:
[1] = system: embryonic muscle fibroblasts (EMF); assay: EMF [35S]-SO4-incorporation assay (sulfate incorporation into proteoglycan); format: cell-based, rat; conditions: for activity in directing change in phenotype of embryonic rat muscle fibroblasts in vitro: compared with rBMP-2
Description: Embryonic Muscle Fibroblast (EMF) Tissue Culture Assay Embryonic Muscle Fibroblasts. Rat EMF cells were derived from the thigh muscles of 20 day old Sprague Dawley rat embryos for use in primary tissue culture assays using a modification of the Koskinen harvesting technique (Koskinen et al., 1985), and grown in growth media (GM) [α-Modified Eagle's Medium (αMEM , Life Technologies, Gaithersburg, Md.), containing 10% heat inactivated fetal bovine serum (FBS), 1% Penicillin/Streptomycin (P/S)] in 5% O2/95% air at 37° C. EMFs were frozen at passage 2 (P-2).
Short Term Culture and Labeling with ^35SO4—Sulfate. The EMFs were plated (day 0) at a concentration of 10^4 cells per well in a 96 well plate which had been precoated with 100 μl of a 50 μg/ml solution of type I Rat Tail Collagen (Collaborative Biomedical Products). The cells were grown for 5 days in GM. On day 5, the cells were conditioned by removing the GM and adding conditioning media (CM) (αMEM containing 0.5% FBS, 1 % P/S) for 24 hours. This media was replaced with 100 μl of fresh CM, just prior to the addition of the test factors (hour 0). Test factors were added to test wells in triplicate. PBS/0. […] 1% BSA, were used as positive controls. Four hours following the addition of factors, the cells were labeled with 1 μCi ^35S—SO4/10 μl sterile PBS/well/96 well plate for 20 hours.
Assay of ^35S Sulfate Incorporation Into Proteoglycans in the Medium. In a departure from the Koskinen et al. (1985) protocol, glycosaminoglycan synthesis was routinely determined by the measurement of incorporation of ^35S sulfate (ICM Biomedical, Costa Mesa, Calif.) into the total cetylpyridinium chloride (CPC)-precipitable materials in the media without prior papain digestion. […] The total medium from each well (˜115 μl) was placed into a 13×100 mm glass culture tube. 150 μl of 100 μg/ml Chondroitin Sulfate A Sodium Salt (Sigma, St. Louis, Mo.) at 4° C. (buffer C), was added to each tube to serve as a carrier. 500 μl of 2.0 mM MgSO4. 4° C. (buffer B), was added. The mixture was incubated in a 37° C. water bath with shaking for 30 minutes. One ml of 1% CPC in 0.02M NaCl (buffer D) was added and incubated at 37° C. for 60 minutes in the water bath.
The samples were filtered through Whatman GF/A glass microfibre filters using a Millipore 12 well filtration device. The contents of each glass tube were individually poured into one of the wells under suction. The tube and filters were washed with buffer B 3 times. The filters were allowed to dry briefly, and were transferred to a scintillation vial. Then 5 ml scintillation cocktail was added per vial and the radioactive counts were measured in the scintillation counter.
In vitro assay for chondrogenic activity: The purified recombinant proteins were tested for biological activity by the assay for enhanced incorporation of ^35S—SO4 into proteoglycan (8,11) by embryonic rat muscle fibroblasts (EMF). The EMF were seeded onto type I collagen coated 96 well plates, with an initial loading of 10^4 cell/well. The cells were grown to near confluence in alpha MEM, 10% FBS, 1% Pen/Strep in 5 days. At day 5 the growth media was replaced with conditioning media (CM), alpha MEM, 0.5% FBS, 1% Pen/Strep, and grown for an additional 24 h. Fresh CM containing the factors to be tested, was added at the concentrations noted. Four hours later, 1 μCi^35 S—SO4 in 10 μL sterile PBS was added per well, and incubation was continued for 20 h. The ^35S—SO4 incorporated into secreted proteoglycan was determined by precipitation of the proteoglycan with cetyl pyridinium chloride, as described above, followed by scintillation counting of the precipitate. The cell layer was trypsinized and the number of cells counted.

[2] = system: quadriceps of Long-Evans rats; assay: In vivo osteogenic activity, poly(lactide)-poly(glycolide) scaffold implants in quadriceps; set-up: species or system rat; conditions: for mineral deposition in implants, Alizarin Red and von Kossa staining / radiograph of implants after excision, mineralization pattern / vascularization, cell infiltration and extracellular matrix in implants (H&E) / ingrowth of capillaries and extracellular matrix formation, r(A-4) versus rA4 implants: 4 weeks; for vascularization, cell infiltration and extracellular matrix in implants (H&E): FIG. 15; for activity in inducing onset of osteogenesis in muscle implants in vivo: compared with rBMP-2
Description: In vivo osteogenic activity. The recombinant proteins, Emdogain and controls were each included in a bioabsorbable polymer matrix implants. The implants were prepared in poly (lactide)-poly(glycolide) scaffolds by the procedure of Whang et al. (1998) with 167 μg per implant. Implants were placed in the quadriceps of the hind legs of 100 g, 4 week old, male Long-Evans rats. Each animal received a negative control implant containing 167 μg of BSA in PBS. The implants were kept in place for 28 days. The implants were removed and radiographed, then they were fixed in 4% paraformaldehyde, dehydrated in graded ethanol and embedded in paraffin. Sections (7μ thick) were cut and stained with either Von Kossa or Alizarin Red dyes, both of which can indicate the presence of mineralized deposits containing divalent cations. To assure that the stains seen were calcific deposits, serial sections were treated with 5% EGTA for 10 min before staining.

[3] = system: embryonic rat muscle fibroblasts (EMF); assay: Cell number of EMF after exposure to factors; format: cell-based; conditions: after 5 days in culture, after a 24 h exposure
Description: In vitro assay for chondrogenic activity: The purified recombinant proteins were tested for biological activity by the assay for enhanced incorporation of ^35S—SO4 into proteoglycan (8,11) by embryonic rat muscle fibroblasts (EMF). The EMF were seeded onto type I collagen coated 96 well plates, with an initial loading of 10^4 cell/well. The cells were grown to near confluence in alpha MEM, 10% FBS, 1% Pen/Strep in 5 days. At day 5 the growth media was replaced with conditioning media (CM), alpha MEM, 0.5% FBS, 1% Pen/Strep, and grown for an additional 24 h. Fresh CM containing the factors to be tested, was added at the concentrations noted. Four hours later, 1 μCi^35 S—SO4 in 10 μL sterile PBS was added per well, and incubation was continued for 20 h. The ^35S—SO4 incorporated into secreted proteoglycan was determined by precipitation of the proteoglycan with cetyl pyridinium chloride, as described above, followed by scintillation counting of the precipitate. The cell layer was trypsinized and the number of cells counted. Incorporation is presented as counts per minute per cell ×10^3. Recombinant human BMP2 (A kind gift from the Genetics Institute, Boston, Mass.) and the bioactive crude S100 fractions from rat incisor dentin (Amar et al., 1991) and/or bovine dentin (see Example 1) were used as the positive controls. […]

Molecule | activity in directing change in phenotype of embryonic rat muscle fibroblasts in vitro [1] | concentration as low as which production of 35S-SO4-labeled proteoglycan was stimulated ([1]; monolayer culture, FIG. 13) | concentration as low as which production of 35S-SO4-labeled proteoglycan was stimulated (molar) ([1]; monolayer culture, FIG. 13) | alkaline phosphatase in implants ([2]; 167 μg per implant) | mineral deposition in implants, Alizarin Red and von Kossa staining ([2]; 167 μg per implant) | radiograph of implants after excision, mineralization pattern ([2]; 167 μg per implant) | vascularization, cell infiltration and extracellular matrix in implants (H&E) ([2]; 167 μg per implant) | mineral deposition in implants, Alizarin Red and von Kossa staining ([2]; 167 μg per implant, listed as (A-4)) | ingrowth of capillaries and extracellular matrix formation, r(A-4) versus rA4 implants [2] | activity in inducing onset of osteogenesis in muscle implants in vivo [2] | cell number (growth factor action) [3] | stimulation of 35S-SO4-labeled proteoglycan production at low concentrations, relative to r(A-4) ([1]; equivalent low (ng/ml) concentrations) | effect on sulfate incorporation compared with rhBMP-2 positive control ([1]; rhBMP-2 at 10 ng/ml) | mineral deposition in implants, Alizarin Red and von Kossa staining ([2]; 167 μg per implant, listed as A4)
r(A-4): recombinant polypeptide SEQ ID NO:5, secreted form of rat amelogenin gene splice product, exons 2, 3, 5, 6d and 7 (MPLPPHPGSPGYINLSYEVLTPLKWYQSMIRQPPLSPILPELPLEAWPATDKTKREEVD; Recombinant rat amelogenin) | equivalent to rBMP-2 | 1 ng/mL | ~140 pM | positive | stained strongly | heavier mineralization around the periphery | vascularized and filled with extracellular matrix; also recorded: infiltrated by many cells, and an abundant network of capillaries | highly positive for deposition of mineral | more prominent | equivalent to rBMP-2 | did not increase |  |  | 
rB4: recombinant full-length rat amelogenin, exons 2, 3, 4, 5, 6 and 7 (protein, UniProt P63278 1-210, looked up, full-length) MGTWILFACLLGAAFAMPLPPHPGSPGYINLSYEKSHSQAINTDRTALVLTPLKWYQSMIRQPYPSYGYEPMGGWLHHQIIPVLSQQHPPSHTLQPHHHLPVVPAQQPVAPQQPMMPVPGHHSMTPTQHHQPNIPPSAQQPFQQPFQPQAIPPQSHQPMQPQSPLHPMQPLAPQPPLPPLFSMQPLSPILPELPLEAWPATDKTKREEVD |  |  |  |  | inactive |  |  |  |  |  |  |  |  | 
rA4: recombinant polypeptide SEQ ID NO:6, secreted form of rat amelogenin gene splice product, exons 2, 3, 4, 5, 6d and 7 (protein, Recombinant rat amelogenin) MPLPPHPGSPGYINLSYEKSHSQAINTDRTALVLTPLKWYQSMIRQPPLSPILPELPLEAWPATDKTKREEVD | equivalent to rBMP-2 |  |  |  | calcified to a lesser extent | more punctate deposition of mineral | vascularized and filled with extracellular matrix; also recorded: vascularized but more sparsely than the r(A-4) implants |  | islands of capillaries, and the formation of a surrounding extracellular matrix was also evident | equivalent to rBMP-2 | increase | less active | quite comparable | some focal deposits of mineral
